According to patent publication US8455640B2, “Process for statins and its pharmaceutically acceptable salts thereof” (MSN Laboratories Limited, priority 2006, dated 2013):

Assay: solubility of the calcium salt in aqueous methanol / methanol
Assay type: physicochemical

## CC(C)c1nc(N(C)S(C)(=O)=O)nc(-c2ccc(F)cc2)c1/C=C/[C@@H](O)C[C@@H](O)CC(=O)[O-].CC(C)c1nc(N(C)S(C)(=O)=O)nc(-c2ccc(F)cc2)c1/C=C/[C@@H](O)C[C@@H](O)CC(=O)[O-].[Ca+2] [formula (1a), rosuvastatin calcium]
Calcium salt prepared by the present invention (calcium acetate as calcium source)
  solubility in an aqueous methanol: freely soluble
Calcium salt prepared by the prior art process (U.S. Pat. No. 5,260,440; sodium chloride byproducts)
  solubility in an aqueous methanol: poor solubility
